Results from patent publication US7056947B2, “Aza-peptide epoxides” (Georgia Tech Research Corp., priority 2002, dated 2006).

Assays:
caspase-3 = target: T1, caspase-3 (Homo sapiens, UniProt P42574); experiment: Caspase-3 progress curve assay; assay type: biochemical; details: substrate Z-DEVD-AFC; NI = no inhibition
T1 construct: made in house; host or cells: E. coli
T1 sequence (P42574 29-175 limits assumed): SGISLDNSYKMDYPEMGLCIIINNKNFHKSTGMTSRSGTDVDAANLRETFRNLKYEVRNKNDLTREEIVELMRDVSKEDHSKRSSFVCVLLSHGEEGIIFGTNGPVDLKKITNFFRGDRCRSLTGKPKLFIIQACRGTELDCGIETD
T1 sequence (P42574 176-277 limits assumed): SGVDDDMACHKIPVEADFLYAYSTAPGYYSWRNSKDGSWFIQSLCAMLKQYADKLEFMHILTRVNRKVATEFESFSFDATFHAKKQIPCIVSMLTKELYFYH
Protocol: Caspase-3, -6, and -8. Caspase-3, -6 and -8 were expressed in E. coli and purified according to methods previously described by Stennicke and Salvesen. Assays using the fluorogenic substrate Z-DEVD-AFC (λex=400 nm, λem=505 nm) were carried out on a Molecular Devices fMax fluorescence microplate reader. Inhibition rates and equilibria were determined by the progress curve method. The standard 100 μL reaction was started by adding enzyme to a mixture of substrate (final concentration of Z-DEVD-AFC 100 μM) and various amounts of inhibitor in buffer (50 mM Hepes, 100 mM NaCl, 0.1% (w/v) CHAPS, sucrose 10% (w/v), and 10 mM DTT, at pH 7.4). The caspases were pre-activated for 10 min at 37° C. in the presence of 10 mM DTT.

caspase-1 = target: T2, caspase-1 (Homo sapiens, UniProt P29466, D381E); experiment: Caspase-1 progress curve assay; assay type: biochemical; details: D381E variant, substrate Ac-YVAD-AMC, 30° C.
T2 construct: His tag (N); made in house; host or cells: E. coli
T2 sequence (P29466 120-297 limits assumed): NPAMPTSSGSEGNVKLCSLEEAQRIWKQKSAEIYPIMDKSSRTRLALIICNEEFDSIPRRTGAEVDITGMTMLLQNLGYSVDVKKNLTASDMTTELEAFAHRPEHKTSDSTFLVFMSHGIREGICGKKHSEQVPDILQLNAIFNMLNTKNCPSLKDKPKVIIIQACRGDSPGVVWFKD
T2 sequence (P29466 317-404 D381E limits assumed): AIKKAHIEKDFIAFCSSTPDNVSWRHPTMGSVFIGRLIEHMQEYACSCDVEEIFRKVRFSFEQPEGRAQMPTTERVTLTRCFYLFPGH
Description: Caspase-1. The preparation of the autolytically stable caspase-1 variant used in these studies has been described previously. Briefly, the variant contains a mutation (D381E) which renders it resistant to autolytic inactivation, but has no detectable affect on enzyme activity as compared to the naturally occurring enzyme. The enzyme variant was expressed in E. coli, purified first by immobilized metal chromatography via the N-terminal N-His tag, treated with excess oxidized glutathione to stabilize the reactive thiolate, and then re-purified by size-exclusion chromatography.
Inhibition data was measured using the progress curve assay method. Serial dilutions of each compound were prepared using an initial 8-fold dilution of a DMSO stock into HGE (100 mM HEPES,20% glycerol v/v, 0.5 mM EDTA), followed by seven serial two-fold dilutions into HGE and 12.5% DMSO, thus maintaining constant DMSO through the dilution series. Ten μL of diluted stocks or of vehicle (HGE and 12.5% DMSO) were placed in triplicate onto a 96-well microtiter plate, allowing several compounds to be tested on each plate. The plate was covered to minimize evaporation, and the plate was pre-warmed to 30° C. for 20 minutes. Enzyme was diluted into 10.0 mL of assay buffer (HGE, 5 mM DTT, plus 15 μM Ac-YVAD-AMC, 2 nM approximate final enzyme concentration), and this activated reaction mixture was added to the plate at 90 μL/well. Progress of substrate hydrolysis was monitored for 900 s in a LabSystems (Needham, Mass.) Fluoroskan Ascent fluorescent plate-reader using 385 and 460 nm excitation and emission filters, respectively, and a photomultiplier gain setting of 10. Triplicate curves were averaged and fit by nonlinear regression to the equation for irreversible inactivation shown below.
[formula] where F0 was routinely fixed to zero, since fluorescence values were always adjusted to an origin of 0. The second order rate constant kon (M^−1s^−1) was obtained from the slopes by linear regression, and errors represent the standard deviation of the regression slope.

k2 caspase-3 (caspase-3) [M⁻¹ s⁻¹] | k2 caspase-1 (caspase-1) [M⁻¹ s⁻¹] | SMILES
2550 ± 25 |  | CC(C)C[C@H](NC(=O)OCc1ccccc1)C(=O)N[C@@H](CCC(=O)O)C(=O)N[C@H](C(=O)NN(CC(=O)O)C(=O)[C@H]1O[C@@H]1C(=O)NCCc1ccccc1)[C@@H](C)O [26h, (2S,3S)-2-(2-Phenethylcarbamoyl)-3-(N^2-(N -benzyloxycarbonylleucylglutamylthreonyl)-N^1-carboxymethylhydrazinocarbonyl)oxirane]
50500 ± 2075 | 58500 | CCOC(=O)[C@H]1O[C@@H]1C(=O)N(CC(=O)O)NC(=O)[C@@H](NC(=O)[C@H](CCC(=O)O)NC(=O)OCc1ccccc1)C(C)C [24c, (2S,3S)-3-(N^2-(N-Benzyloxycarbonylglutamylvalyl)-N^1-carboxymethylhydrazinocarbonyl)oxirane-2-carboxylic Acid Ethyl Ester]
2110 ± 50 | 56640 ± 9322 | CC(C)[C@H](NC(=O)CCc1ccccc1)C(=O)N[C@@H](C)C(=O)NN(CC(=O)O)C(=O)[C@H]1O[C@@H]1C(=O)OCCc1ccccc1 [23e, (2S,3S)-3-(N^2-(3-Phenylpropanoylvalylalanyl)-N^1-carboxymethylhydrazinocarbonyl)oxirane-2-carboxylic Acid Phenethyl Ester]
420 ± 6 | 26090 ± 2562 | CC(C)CC(NC(=O)[C@H]1O[C@@H]1C(=O)N(CC(=O)O)NC(=O)[C@H](C)NC(=O)[C@@H](NC(=O)CCc1ccccc1)C(C)C)C(N)=O (stereo partly drawn) [23k, (2S,3S)-2-(3-Methyl-1-amido-butylcarbamoyl)-3-(N^2-(3-phenylpropanoylvalylalanyl)-N^1-carboxymethylhydrazinocarbonyl)oxirane]
1910 ± 370 |  | CCNC(=O)[C@H]1O[C@@H]1C(=O)N(CC(=O)O)NC(=O)[C@H](C)NC(=O)[C@@H](NC(=O)CCc1ccccc1)C(C)C [23f, (2S,3S)-2-(2-Ethylcarbamoyl)-3-(N^2-(3-phenylpropanoylvalylalanyl)-N^1-carboxymethylhydrazinocarbonyl)oxirane]
3650 ± 570 |  | CCOC(=O)C1OC1C(=O)N(CC(=O)O)NC(=O)C(NC(=O)OCc1ccccc1)C(C)C [22c, Cbz-Val-AAsp-(S,S)-EP-COOEt]
310 ± 5 |  | CC(C)C(NC(=O)OCc1ccccc1)C(=O)NN(CC(=O)O)C(=O)C1OC1CCc1ccccc1 (stereo not drawn) [22a, Cbz-Val-AAsp-(trans)-EP-CH2CH2Ph]
3050 |  | CC[C@H](C)[C@H](NC(=O)OCc1ccccc1)C(=O)N[C@@H](CCC(=O)O)C(=O)N[C@H](C(=O)NN(CC(=O)O)C(=O)[C@H]1O[C@@H]1C(=O)NC(C)C(=O)NCc1ccccc1)[C@@H](C)O (stereo partly drawn) [27j, (2S,3S)-2-(1-Benzylcarbamoyl-ethylcarbamoyl)-3-(N^2-(N-benzyloxycarbonylisoleucylglutamylthreonyl)-N^1-carboxymethylhydrazinocarbonyl)oxirane]
1110 ± 340 |  | CC(C)C(NC(=O)OCc1ccccc1)C(=O)NN(CC(=O)O)C(=O)C1OC1C(=O)O [22n, Cbz-Val-AAsp-(S,S)-EP-COOH]
145 ± 18 |  | CC(C)[C@H](NC(=O)OCc1ccccc1)C(=O)NN(CC(=O)O)C(=O)[C@@H]1O[C@H]1c1ccc(Cl)cc1 (relative stereo) [22b, trans-2-(N^2-(N-Benzyloxycarbonylvalyl)-N^1-carboxymethylhydrazinocarbonyl)-3-(4-chlorophenyl)oxirane]
 | 300 ± 144 | CC(C)[C@H](NC(=O)CCc1ccccc1)C(=O)N[C@@H](C)C(=O)NN(CC(=O)O)C(=O)[C@@H]1O[C@H]1CCc1ccccc1 (relative stereo) [23a, trans-3-(N^2-(N-3-Phenylpropanoylvalylalanyl)-N^1-carboxylmethylhydrazinocarbonyl)-2-(2-phenylethyl)oxirane]
1280 ± 77 |  | CC(C)C[C@H](NC(=O)OCc1ccccc1)C(=O)N[C@@H](CCC(=O)O)C(=O)N[C@H](C(=O)NN(CC(=O)O)C(=O)[C@H]1O[C@@H]1C(=O)NC(C)C(=O)NCc1ccccc1)[C@@H](C)O (stereo partly drawn) [26j, (2S,3S)-2-(1-Benzylcarbamoyl-ethylcarbamoyl)-3-(N^2-(N-benzyloxycarbonylleucylglutamylthreonyl)-N^1-carboxymethylhydrazinocarbonyl)oxirane]

More lines, now with the values behind:

SMILES | k2 caspase-3 (caspase-3) [M⁻¹ s⁻¹] | k2 caspase-1 (caspase-1) [M⁻¹ s⁻¹]
CC(C)[C@H](NC(=O)CCc1ccccc1)C(=O)N[C@@H](C)C(=O)NN(CC(=O)O)C(=O)[C@H]1O[C@@H]1C(=O)NC(Cc1ccccc1)C(N)=O (stereo partly drawn) [23l (S,S), (2S,3S)-2-(1-Amido-phenethylcarbamoyl)-3-(N^2-(3-phenylpropanoylvalylalanyl)-N^1-carboxymethylhydrazinocarbonyl)oxirane] | 625 ± 160 | 32740 ± 9937
CC(NC(=O)[C@@H]1O[C@H]1C(=O)N(CC(=O)O)NC(=O)[C@H](C)NC(=O)[C@@H](NC(=O)CCc1ccccc1)C(C)C)C(=O)NCc1ccccc1 (stereo partly drawn) [23j (R,R), (2R,3R)-2-(1-Benzylcarbamoylethylcarbamoyl)-3-(N^2-(3-phenylpropanoylvalylalanyl)-N^1-carboxymethylhydrazinocarbonyl)oxirane] |  | 268 ± 75
CCOC(=O)[C@@H]1O[C@H]1C(=O)N(CC(=O)O)NC(=O)[C@H](C)NC(=O)[C@@H](NC(=O)CCc1ccccc1)C(C)C [23c (R,R)] |  | 6290 ± 1524
CC(C)[C@H](NC(=O)CCc1ccccc1)C(=O)N[C@@H](C)C(=O)NN(CC(=O)O)C(=O)[C@@H]1O[C@H]1C(=O)OCc1ccccc1 [23d (R,R), (2R,3R)-3-(N^2-(3-Phenylpropanoylvalylalanyl)-N^1-carboxymethylhydrazinocarbonyl)oxirane-2-carboxylic Acid Benzyl Ester] |  | 1860 ± 302
CC(C)[C@H](NC(=O)CCc1ccccc1)C(=O)N[C@@H](C)C(=O)NN(CC(=O)O)C(=O)[C@@H]1O[C@H]1C(=O)NC(Cc1ccccc1)C(N)=O (stereo partly drawn) [23l (R,R), (2R,3R)-2-(1-Amido-phenethylcarbamoyl)-3-(N^2-(3-phenylpropanoylvalylalanyl)-N^1-carboxymethylhydrazinocarbonyl)oxirane] |  | 330
CC(C)[C@H](NC(=O)CCc1ccccc1)C(=O)N[C@@H](C)C(=O)NN(CC(=O)O)C(=O)[C@@H]1O[C@H]1C(=O)NCCc1ccccc1 [23h (R,R), (2R,3R)-2-(2-Phenethylcarbamoyl)-3-(N^2-(3-phenylpropanoylvalylalanyl)-N^1-carboxymethylhydrazinocarbonyl)oxirane] |  | 950 ± 51
CC(C)[C@H](NC(=O)CCc1ccccc1)C(=O)N[C@@H](C)C(=O)NN(CC(=O)O)C(=O)[C@@H]1O[C@H]1C(=O)NCC(O)c1ccccc1 (stereo partly drawn) [23i (R,R), (2R,3R)-2-(2-Hydroxy-2-phenylethylcarbamoyl)-3-(N^2-(3-phenylpropanoylvalylalanyl)-N^1-carboxymethylhydrazinocarbonyl)oxirane] |  | 400 ± 19
CC(NC(=O)C(NC(=O)CCc1ccccc1)C(C)C)C(=O)NN(CC(=O)O)C(=O)[C@@H]1O[C@H]1C(=O)NCc1ccccc1 (stereo partly drawn) [23g (R,R), (2R,3R)-2-(2-Benzylcarbamoyl)-3-(N^2-(3-phenylpropanoylvalylalanyl)-N^1-carboxymethylhydrazinocarbonyl)oxirane] |  | 1630 ± 522
